Source: article PMC6941357, “An in vitro toolbox to accelerate anti-malarial drug discovery and development” (Malaria Journal, 2020)

Assays:
[1] = Octanol/pH 7.4 buffer partition coefficient, shake flask; conditions: octanol/pH 7.4 buffer; for Measured Log D7.4: shake flask, 37 °C; for logD: pH 7.4
Experimental: Partition coefficients between octanol and pH 7.4 buffer were measured using a shake flask method. A stock solution of test compound in octanol was prepared at a concentration between 3 and 30 mg/mL based on the expected partition coefficient value. This stock solution was then diluted 3- and 10-fold with octanol and used to prepare the octanol phase for the partitioning experiments. Two different dilutions were used to confirm that there were no saturation effects. Phosphate buffered saline was prepared by combining 67 mM disodium hydrogen orthophosphate and sodium dihydrogen orthophosphate (both prepared in 43 mM NaCl) to a final pH of 7.4.
Partitioning experiments were conducted by mixing equal volumes of the octanol (containing test compound) and aqueous phases and placing on a vibrating plate mixer in an incubator at 37 °C. […] An aliquot of the aqueous phase was carefully removed and centrifuged again to ensure no contamination from the octanol phase before sampling in duplicate and diluting with aqueous methanol for analysis. Diluted samples were analysed by LC–MS along with calibration standards (Additional file 1: Table S2) and partition coefficients were calculated from the ratio of the mean octanol to buffer concentration after accounting for the dilution factors. The partitioning results for the two time points were used to confirm that the partitioning experiment had reached equilibrium.

CYP2C19 = CYP2C19 (Homo sapiens, UniProt P33261); test: in vitro
Experimental: (§1) The CYP inhibition assay was based on a previous publication with minor modifications. The method uses human liver microsomes and a substrate-specific interaction approach which relies on the formation of a metabolite that is mediated by a specific CYP isoform. The specific CYP-mediated metabolic pathways, substrates, substrate Km values, positive control inhibitors and specific incubation conditions are shown in Additional file 1: Table S4. […] Samples were quenched by the addition of ice-cold acetonitrile containing diazepam as the analytical internal standard. Concentrations of the substrate-specific metabolites in quenched samples were determined by LC–MS (Additional file 1: Table S5) relative to calibration standards prepared in quenched microsomal matrix.
(§2) The inhibitory effect of each test compound and positive control inhibitor was based on the reduction in the formation of the specific CYP-mediated metabolite (represented as percent inhibition of enzyme activity) relative to metabolite formation in the absence of inhibitor (i.e. control for maximal enzyme activity). […] The Km was determined under the same incubation conditions by measuring the rate of metabolite formation (pmol/min/mg protein) as a function of substrate concentration (Additional file 1: Table S4).

CYP2C9 = CYP2C9 (Homo sapiens, UniProt P11712); test: in vitro
Experimental: as §1, §2

CYP2D6 = CYP2D6 (Homo sapiens, UniProt P10635); test: in vitro
Experimental: as §1, §2

CYP3A4 = CYP3A4 (Homo sapiens, UniProt P08684); test: in vitro
Experimental: as §1, §2

[2] = Plasma protein binding via ultracentrifugation (UC); type: in vitro ADME, human; conditions: human, pH 7.4, ultracentrifugation, read-out: Fraction unbound, human plasma
Experimental: Pooled human plasma (n = 3–4 donors) was obtained by centrifugation of blood (collected by the Australian Red Cross Blood Service, Melbourne, Australia or the Volunteer Blood Donor Registry, Clinical Translation Centre, Walter & Eliza Hall Institute of Medical Research, Parkville, Australia), or sourcing pooled plasma directly from commercial sources (Innovative Research Inc, MI) and stored frozen at − 80 °C.
(§3) An ultracentrifugation method adapted from a previous publication was initially used to assess plasma protein binding and binding in the other media. […] Additional ultracentrifuge tubes containing spiked matrix were maintained at 37 °C, 5% or 10% CO2 or normal atmosphere conditions, with aliquots being taken within 0.5 h of the start and at the end of ultracentrifugation to serve as controls for the assessment of stability and to obtain a measure of the total concentration (Ctotal). Following ultracentrifugation, the pH was checked and an aliquot of protein-free supernate was taken from each ultracentrifuge tube for determination of the unbound concentration (Cunbound).
(§4) Total matrix and protein free samples were analysed using a matrix matching approach whereby each sample was mixed in a 1:1 ratio with the opposite blank medium (i.e. blank total matrix or blank protein free buffer). For example, plasma samples were mixed with blank pH 7.4 buffer whereas plasma supernatant samples were mixed with blank plasma. Each of the sample sets were then assayed against a common calibration curve prepared in a 1:1 mixture of total matrix and protein free pH 7.4 buffer. […] The standard deviation for fu was calculated using the propagation of errors approach as described previously. The potential for compound degradation was assessed by comparing the average value for Ctotal at the start and end of the experiment.

in vitro = conditions: human, pH 7.4, HLM CLint
Procedure, shortened: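 Intrinsic clearance (µL/min/mg protein) came from the first-order substrate-depletion rate in human liver microsomes, using only the initial log-linear phase where kinetics deviated. Samples were quenched at 2, 5, 15, 30 and 60 min and quantified by LC–MS. Unbound CLint was obtained by dividing by microsomal fu.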

[3] = Binding to human liver microsomes via ultracentrifugation; type: in vitro ADME; conditions: human, liver microsomes, pH 7.4, 0.4 mg/mL protein, read-out: Fraction unbound, HLM
Experimental: A suspension of human liver microsomes (HLM, XenoTech LLC, Lenexa, KS, USA) was prepared in 0.1 M phosphate buffer (pH 7.4) at a protein concentration of 0.4 mg/mL immediately prior to the experiment.
as §3, §4

[4] = neat pooled plasma, neat plasma
[5] = liver microsomes, human liver microsomes, average of n = 2 replicates, < 7 means < 15% loss over 60 min
[6] = CYP3A4 (midaz) IC50, human liver microsomes, CYP3A4 (midaz), highest concentration tested 20 µM
[7] = CYP3A4 (test) IC50, human liver microsomes, CYP3A4 (test), highest concentration tested 20 µM

Chain of CYP2C19 (P33261 whole entry, canonical isoform): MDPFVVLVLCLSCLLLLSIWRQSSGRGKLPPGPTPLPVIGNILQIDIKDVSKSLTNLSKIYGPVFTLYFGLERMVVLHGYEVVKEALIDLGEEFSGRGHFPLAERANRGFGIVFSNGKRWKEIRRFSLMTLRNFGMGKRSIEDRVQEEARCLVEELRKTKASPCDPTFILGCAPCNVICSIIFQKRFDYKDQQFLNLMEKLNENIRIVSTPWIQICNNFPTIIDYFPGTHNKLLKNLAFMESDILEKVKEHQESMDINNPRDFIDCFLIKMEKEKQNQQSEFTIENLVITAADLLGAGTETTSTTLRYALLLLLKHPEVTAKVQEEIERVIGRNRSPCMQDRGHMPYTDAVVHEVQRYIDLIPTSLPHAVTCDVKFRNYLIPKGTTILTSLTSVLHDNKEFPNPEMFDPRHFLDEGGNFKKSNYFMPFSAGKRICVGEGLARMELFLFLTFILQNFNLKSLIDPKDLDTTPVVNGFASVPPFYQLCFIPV
Chain of CYP2D6 (P10635 whole entry): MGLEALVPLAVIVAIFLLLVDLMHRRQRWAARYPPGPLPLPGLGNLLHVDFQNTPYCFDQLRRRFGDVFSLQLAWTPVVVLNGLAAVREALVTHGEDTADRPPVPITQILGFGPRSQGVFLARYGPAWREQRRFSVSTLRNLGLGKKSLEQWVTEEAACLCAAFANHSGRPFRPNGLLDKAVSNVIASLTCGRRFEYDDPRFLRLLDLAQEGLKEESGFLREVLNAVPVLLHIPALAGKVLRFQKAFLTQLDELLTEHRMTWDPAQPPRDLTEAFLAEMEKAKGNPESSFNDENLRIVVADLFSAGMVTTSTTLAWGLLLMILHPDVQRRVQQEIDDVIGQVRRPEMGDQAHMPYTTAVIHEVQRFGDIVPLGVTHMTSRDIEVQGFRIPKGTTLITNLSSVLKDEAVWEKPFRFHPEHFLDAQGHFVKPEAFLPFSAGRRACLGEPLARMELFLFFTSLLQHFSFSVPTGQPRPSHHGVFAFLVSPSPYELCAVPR
Chain of CYP2C9 (P11712 whole entry): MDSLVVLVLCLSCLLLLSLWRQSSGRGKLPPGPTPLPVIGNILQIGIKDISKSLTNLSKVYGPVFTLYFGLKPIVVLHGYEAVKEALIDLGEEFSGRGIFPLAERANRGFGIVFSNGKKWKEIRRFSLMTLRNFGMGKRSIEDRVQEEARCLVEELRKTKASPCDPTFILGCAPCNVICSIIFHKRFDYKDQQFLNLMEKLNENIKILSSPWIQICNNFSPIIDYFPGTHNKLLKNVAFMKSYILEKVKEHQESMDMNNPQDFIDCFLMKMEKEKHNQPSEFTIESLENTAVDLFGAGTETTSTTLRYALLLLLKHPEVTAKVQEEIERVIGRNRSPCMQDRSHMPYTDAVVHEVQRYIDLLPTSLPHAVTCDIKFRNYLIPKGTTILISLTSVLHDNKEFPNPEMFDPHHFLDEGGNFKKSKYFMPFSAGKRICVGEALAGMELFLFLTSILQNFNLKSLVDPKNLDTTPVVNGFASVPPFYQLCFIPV
Chain of CYP3A4 (P08684 whole entry): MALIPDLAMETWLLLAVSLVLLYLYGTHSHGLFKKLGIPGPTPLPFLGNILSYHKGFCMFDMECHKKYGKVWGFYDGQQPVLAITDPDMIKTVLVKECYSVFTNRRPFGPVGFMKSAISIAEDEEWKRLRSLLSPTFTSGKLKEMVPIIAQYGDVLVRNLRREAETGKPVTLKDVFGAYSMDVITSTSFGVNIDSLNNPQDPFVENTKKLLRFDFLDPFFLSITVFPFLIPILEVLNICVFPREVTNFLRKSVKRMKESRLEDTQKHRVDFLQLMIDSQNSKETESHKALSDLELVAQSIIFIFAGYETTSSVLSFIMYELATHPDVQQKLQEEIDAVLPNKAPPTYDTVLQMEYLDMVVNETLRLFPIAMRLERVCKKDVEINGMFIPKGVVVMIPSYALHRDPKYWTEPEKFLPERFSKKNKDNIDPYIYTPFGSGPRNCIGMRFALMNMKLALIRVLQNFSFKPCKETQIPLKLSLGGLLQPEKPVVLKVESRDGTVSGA

| SMILES | Measured Log D7.4 [1] | CYP2C19 % inhibition at max conc (CYP2C19; microsomes) | IC50 (CYP2C19; microsomes) [µM] | CYP2C9 % inhibition at max conc (CYP2C9; microsomes) | IC50 (CYP2C9; microsomes) [µM] | IC50 (CYP2D6; microsomes) [µM] | Ki (CYP2D6; microsomes) [nM] | CYP3A4 (midaz) % inhibition at max conc (CYP3A4; microsomes) | CYP3A4 (test) % inhibition at max conc (CYP3A4; microsomes) | IC50 (CYP3A4; microsomes) [µM] | IC50 (CYP2C19) [µM] | IC50 (CYP2C9) [µM] | IC50 (CYP2D6) [µM] | CYP2D6 % inhibition at max conc (CYP2D6; microsomes) | fraction unbound at […] [2, 4] | microsomal CLint at 1 µM (in vitro; [5]) [µL/min/mg] | IC50 (CYP3A4; [6]) [µM] | further results |
| --- | --- | --- | --- | --- | --- | --- | --- | --- | --- | --- | --- | --- | --- | --- | --- | --- | --- | --- |
| CCN(CC)CCCNc1ccnc2cc(Cl)ccc12.Cl.Cl [AQ-13] | 1.30 | nmi | > 20 | nmi | > 20 | 13 | 8300 | nmi | nmi | > 20 | – | – | – | – | – | – | – | – |
| C[C@H]1[C@H](OC(=O)CCC(=O)O)O[C@@H]2O[C@@]3(C)CC[C@H]4[C@H](C)CC[C@@H]1[C@@]24OO3 [Artesunate] | – | nmi | – | nmi | – | – | – | nmi | nmi | – | > 20 | > 20 | > 20 | nmi | – | – | – | fraction unbound at […] ([2]; pooled plasma, instability evident, estimate only): 0.27 ± 0.008; microsomal CLint at 1 µM (in vitro; microsomes): 146 µL/min/mg; IC50 (CYP3A4; human, microsomes, pH 7.4, CYP3A4 (test) IC50): > 20 µM |
| CC1(C)N=C(N)N=C(N)N1c1ccc(Cl)cc1 [Cycloguanil] | – | nmi | – | nmi | – | – | – | nmi | nmi | – | > 20 | > 20 | 6 | – | 0.75 ± 0.04 | < 7 | > 20 | fraction unbound at […] [3]: 0.72 ± 0.083; Ki (CYP2D6): 3700 nM; IC50 (CYP3A4; [7]): > 20 µM |
| Cc1cc(Nc2ccc(S(F)(F)(F)(F)F)cc2)n2nc(C(C)(F)F)nc2n1 [DSM265] | – | – | – | – | – | – | – | – | – | – | – | – | – | – | 0.008 | – | – | logD [1]: 4.03 |
| CCNCc1cc(Nc2ccnc3cc(Cl)ccc23)ccc1O [Desethylamodiaquine] | – | nmi | – | nmi | – | – | – | nmi | – | – | > 18 | > 18 | 2.6 | – | 0.17 ± 0.002 | 13.3 | > 18 | logD [1]: 1.3; Ki (CYP2D6): 1600 nM |
| C[C@H]1c2cccc(O)c2C(=O)C2=C(O)[C@]3(O)C(=O)C(C(N)=O)=C(O)[C@@H](N(C)C)[C@@H]3[C@@H](O)[C@@H]21 [Doxycyclin] | – | nmi | – | nmi | – | – | – | nmi | – | – | > 20 | > 20 | > 20 | nmi | 0.23 | < 7 | > 20 | fraction unbound at […] [3]: 0.93 ± 0.045; IC50 (CYP3A4; [7]): > 20 µM; inhibition at 20 µM (CYP3A4; human, microsomes, pH 7.4, CYP3A4 (test) % inhibition at max conc): 22% |
| COc1cc2[nH]c(C)c(-c3ccc(Oc4ccc(OC(F)(F)F)cc4)cc3)c(=O)c2cc1Cl [ELQ300] | – | 41% | > 20 | – | 7.5 | 8 | 5000 | – | nmi | > 20 | – | – | – | – | – | – | – | Ki (CYP2C9; microsomes): 5.4 µM |
| CN(C)C[c-]1cccc1CNc1ccnc2cc(Cl)ccc12.[Fe+2].c1cc[cH-]c1 (centres unmarked) [Ferroquine] | 3.39 | nmi | > 20 | nmi | > 20 | 0.83 | 520 | – | 42% | – | – | – | – | – | – | – | – | Ki (CYP3A4; microsomes): 5.2 µM |
| CC(C)(C)NCc1cc(C(C)(C)C)cc(-c2cnc(C(F)(F)F)c(F)c2)c1O [JPC3210] | 5.30 | nmi | > 20 | nmi | > 20 | 0.7 | 430 | nmi | nmi | > 20 | – | – | – | – | – | – | – | – |
| CCCCN(CCCC)CC(O)c1cc(Cl)cc2c1-c1ccc(Cl)cc1/C2=C/c1ccc(Cl)cc1 (centres unmarked) [Lumefantrine] | – | nmi | – | nmi | – | – | – | nmi | nmi | – | > 20 | > 20 | 2.9 | – | – | < 7 | > 20 | Ki (CYP2D6): 1800 nM; IC50 (CYP3A4; [7]): > 20 µM |
| O=C(NCCN1CCCC1)c1cc(-c2ccc(CN3CCOCC3)cc2)nc2ccc(F)cc12 [M5717] | – | nmi | > 20 | nmi | > 20 | > 20 | – | nmi | nmi | > 20 | – | – | – | nmi | – | – | – | – |
| COc1cc(N[C@H](C)CCCN)c2nccc(C)c2c1Oc1ccc(Cl)c(Cl)c1 [NPC1161B] | – | – | 9.6 | 37% | > 20 | > 20 | – | 37% | – | – | – | – | – | 39% | – | – | – | Ki (CYP2C19; microsomes): 5.7 µM; Ki (CYP3A4; microsomes): 8.2 µM |
| CC(C)(C)NCc1cc(Nc2ccnc3cc(Cl)ccc23)c2c(c1O)CCCC2 [Naphthoquine] | 4.18 | nmi | > 20 | nmi | > 20 | 1.1 | 680 | 41% | 38% | > 20 | – | – | – | – | – | – | – | – |
| CCc1nc(N)nc(N)c1OCCCOc1ccccc1CCC(=O)O.Cl [P218] | 0.080 | nmi | > 20 | nmi | > 20 | > 20 | – | nmi | nmi | > 20 | – | – | – | nmi | – | – | – | – |
| Clc1ccc2c(N3CCN(CCCN4CCN(c5ccnc6cc(Cl)ccc56)CC4)CC3)ccnc2c1 [Piperaquine] | – | nmi | – | – | – | – | – | – | nmi | – | > 20 | – | > 20 | nmi | 0.042 | 20.1 | 4.5 | fraction unbound at […] [3]: 0.013 ± 0.002; Ki (CYP3A4; CYP3A4 (midaz) Ki, human liver microsomes, CYP3A4 (midaz)): 3.2 µM; IC50 (CYP3A4; [7]): > 20 µM |
